Measurements reported in paper PMC4745983 (Frontiers in Cell and Developmental Biology, 2016).
In brackets after ≈: the same amount, converted by molar mass. Where two headings read alike, the source gives them in different places. Marks after values point to notes of the source that are not given here. No end group written: not given here.

Tests used:
E. coli CECT101 = format: cell-based, Escherichia coli; conditions: for Activity against E. coli CECT101 relative to nisin: comparison of MIC values / growth curves (Table 6, Figure 3)
Method: (§1) L. lactis strains were cultured in M17 broth supplemented with 0.5% (w/v) glucose (GM17) for genetic manipulation or in minimal expression medium (MEM) for protein expression at 30°C (Rink et al., [2005]). E. coli CECT101 was grown in Luria-Bertani broth aerated by shaking (200 rpm) at 37°C.
(§2) The indicator strains were first cultured until OD (600 nm) reached 0.5. When testing the MIC value, the culture was diluted 1000 times with the appropriate medium. All the tests were performed with a temperature controlled plate reader (Tecan infinite F200, Tecan Group AG) in a 96-well plate (Greiner Bio-one). The peptides were first diluted in gradient with medium and then mixed with diluted indicator strains. The final concentration of the peptides ranged from 0.00625 to 0.8 μM against L. lactis MG1363 and from 0.25 to 32 μM against E. coli CECT101 in 100 μl volume. The plate was incubated at 30°C or 37°C for 18 h depending on the indicator strain being L. lactis or E. coli, respectively. OD (600 nm) was checked every 30 min. For E. coli, 2 min of shaking was performed before every check. When testing the activity of nisin against E. coli in the presence of EDTA, an EDTA solution was prepared and added to a final concentration of 50, 110, or 250 μM. The minimal concentration of peptide causing no observed growth of indicator strains was considered as the MIC value.

L. lactis MG1363 = format: cell-based, Lactococcus lactis; conditions: for MIC value, L. lactis MG1363: MG1363, 18 h
Method: as §1, §2

E. coli ATCC 25922 = conditions: indicator strain E. coli ATCC 25922, [2013], cited from earlier work
Excerpt: Table 1 List of selected peptides with anti-Gram-negative bacteria activity. | column: MIC(μM)

E. coli BL21 AI = conditions: indicator strain E. coli BL21 AI, cited from earlier work
Excerpt: To increase the activity of nisin against Gram-negative bacteria, both the inhibition activity and trans-outer membrane activity are important. When the first three rings of nisin are intact, the lipid II binding activity is stable. Retaining the pore formation activity is crucial. By further variation of the linker between the nisin part and the tail or searching for more effic ...

[1] = supernatant of L. lactis NZ9000 expression culture in MEM medium; conditions: Lactococcus lactis, 30°C, up to 3 h induction
[2] = supernatant of L. lactis NZ9000 expression culture in MEM medium, mixed with supernatant containing NisP; conditions: Lactococcus lactis, 30°C, up to 3 h induction; 1 h with NisP

C=C1NC(=O)[C@H]([C@@H](C)CC)NC(=O)[C@H](NC(=O)/C(=C/C)NC(=O)[C@@H](N)[C@@H](C)CC)CSC[C@@H](C(=O)N[C@H]2C(=O)N3CCC[C@H]3C(=O)NCC(=O)N[C@H](C(=O)N[C@@H](CCCCN)C(=O)N[C@H]3C(=O)NCC(=O)N[C@@H](C)C(=O)N[C@@H](CC(C)C)C(=O)N[C@@H](CCSC)C(=O)NCC(=O)N[C@H](C(=O)N[C@@H](CC(N)=O)C(=O)N[C@@H](CCSC)C(=O)N[C@@H](CCCCN)C(=O)N[C@H](C(=O)N[C@@H](Cc4ccc(O)cc4)C(=O)N[C@H](C(=O)N4CCC[C@H]4C(=O)N[C@@H](CCCNC(=N)N)C(=O)N4CCC[C@H]4C(=O)N[C@@H](CCCNC(=N)N)C(=O)N4CCC[C@H]4C(=O)N4CCC[C@H]4C(=O)N[C@@H](Cc4c[nH]cn4)C(=O)N4CCC[C@H]4C(=O)N[C@@H](CCCNC(=N)N)C(=O)O)[C@@H](C)CC)C(C)C)CS[C@H]3C)CS[C@H]2C)NC(=O)[C@H](CC(C)C)NC1=O [GNT1]
MIC value, E. coli CECT101 (E. coli CECT101; CECT101, 18 h): >16 µM | Activity against E. coli CECT101 relative to nisin (E. coli CECT101): lower net activity than nisin | MIC value, L. lactis MG1363 (L. lactis MG1363): 1 µM (≈ 3.61 µg/mL)

C=C1NC(=O)[C@H]([C@@H](C)CC)NC(=O)[C@H](NC(=O)/C(=C/C)NC(=O)[C@@H](N)[C@@H](C)CC)CSC[C@@H](C(=O)N[C@H]2C(=O)N3CCC[C@H]3C(=O)NCC(=O)N[C@H](C(=O)N[C@@H](CCCCN)C(=O)N[C@H]3C(=O)NCC(=O)N[C@@H](C)C(=O)N[C@@H](CC(C)C)C(=O)N[C@@H](CCSC)C(=O)NCC(=O)N[C@H](C(=O)N[C@@H](CC(N)=O)C(=O)N[C@@H](CCSC)C(=O)N[C@@H](CCCCN)C(=O)N4CCC[C@H]4C(=O)N4CCC[C@H]4C(=O)N[C@@H](Cc4ccc(O)cc4)C(=O)N[C@@H](CC(C)C)C(=O)N4CCC[C@H]4C(=O)N[C@@H](CCCNC(=N)N)C(=O)N4CCC[C@H]4C(=O)N[C@@H](CCCNC(=N)N)C(=O)N4CCC[C@H]4C(=O)N4CCC[C@H]4C(=O)N[C@@H](CCCNC(=N)N)C(=O)N[C@@H](CCCNC(=N)N)C(=O)N[C@H](C(=O)N[C@@H](Cc4ccc(O)cc4)C(=O)N[C@@H](CC(N)=O)C(=O)N[C@@H](CCCNC(=N)N)C(=O)O)[C@@H](C)CC)CS[C@H]3C)CS[C@H]2C)NC(=O)[C@H](CC(C)C)NC1=O [GNT6]
MIC value, E. coli CECT101 (E. coli CECT101; CECT101, 18 h): >16 µM | Activity against E. coli CECT101 relative to nisin (E. coli CECT101): lower net activity than nisin

C=C1NC(=O)[C@H]([C@@H](C)CC)NC(=O)[C@H](NC(=O)/C(=C/C)NC(=O)[C@@H](N)[C@@H](C)CC)CSC[C@@H](C(=O)N[C@H]2C(=O)N3CCC[C@H]3C(=O)NCC(=O)N[C@H](C(=O)N[C@@H](CCCCN)C(=O)N[C@H]3C(=O)NCC(=O)N[C@@H](C)C(=O)N[C@@H](CC(C)C)C(=O)N[C@@H](CCSC)C(=O)NCC(=O)N[C@H](C(=O)N[C@@H](CC(N)=O)C(=O)N[C@@H](CCSC)C(=O)N[C@@H](CCCCN)C(=O)N4CCC[C@H]4C(=O)N[C@@H](CCCNC(=N)N)C(=O)N4CCC[C@H]4C(=O)N[C@@H](CCCNC(=N)N)C(=O)N4CCC[C@H]4C(=O)N4CCC[C@H]4C(=O)N[C@@H](CCCNC(=N)N)C(=O)N[C@@H](CCCNC(=N)N)C(=O)N[C@H](C(=O)N[C@@H](Cc4ccc(O)cc4)C(=O)N[C@@H](CC(N)=O)C(=O)N[C@@H](CCCNC(=N)N)C(=O)O)[C@@H](C)CC)CS[C@H]3C)CS[C@H]2C)NC(=O)[C@H](CC(C)C)NC1=O [GNT7]
MIC value, E. coli CECT101 (E. coli CECT101; CECT101, 18 h): >16 µM | Activity against E. coli CECT101 relative to nisin (E. coli CECT101): lower net activity than nisin | MIC value, L. lactis MG1363 (L. lactis MG1363): 0.2 µM (≈ 0.74 µg/mL) | Activity against L. lactis relative to GNT16 (L. lactis MG1363; from MIC values): equal activity as GNT16

C=C1NC(=O)[C@H]([C@@H](C)CC)NC(=O)[C@H](NC(=O)/C(=C/C)NC(=O)[C@@H](N)[C@@H](C)CC)CSC[C@@H](C(=O)N[C@H]2C(=O)N3CCC[C@H]3C(=O)NCC(=O)N[C@H](C(=O)N[C@@H](CCCCN)C(=O)N[C@H]3C(=O)NCC(=O)N[C@@H](C)C(=O)N[C@@H](CC(C)C)C(=O)N[C@@H](CCSC)C(=O)NCC(=O)N[C@H](C(=O)N[C@@H](CC(N)=O)C(=O)N[C@@H](CCSC)C(=O)N[C@@H](CCCCN)C(=O)N4CCC[C@H]4C(=O)N[C@@H](CCCNC(=N)N)C(=O)N4CCC[C@H]4C(=O)N4CCC[C@H]4C(=O)N[C@@H](Cc4c[nH]cn4)C(=O)N4CCC[C@H]4C(=O)N[C@@H](CCCNC(=N)N)C(=O)N[C@@H](CC(C)C)C(=O)O)CS[C@H]3C)CS[C@H]2C)NC(=O)[C@H](CC(C)C)NC1=O [GNT16-3rings]
MIC value, E. coli CECT101 (E. coli CECT101; CECT101, 18 h): >32 µM | Activity against E. coli CECT101 relative to nisin (E. coli CECT101): lower net activity than nisin | MIC value, L. lactis MG1363 (L. lactis MG1363): 1 µM (≈ 3.09 µg/mL)

C=C1NC(=O)[C@H]([C@@H](C)CC)NC(=O)[C@H](NC(=O)/C(=C/C)NC(=O)[C@@H](N)[C@@H](C)CC)CSC[C@@H](C(=O)N[C@H]2C(=O)N3CCC[C@H]3C(=O)NCC(=O)N[C@H](C(=O)N[C@@H](CCCCN)C(=O)N[C@H]3C(=O)NCC(=O)N[C@@H](C)C(=O)N[C@@H](CC(C)C)C(=O)N[C@@H](CCSC)C(=O)NCC(=O)N[C@H](C(=O)N[C@@H](CC(N)=O)C(=O)N[C@@H](CCSC)C(=O)N[C@@H](CCCCN)C(=O)N[C@H]4C(=O)N[C@@H](C)C(=O)N[C@H]5C(=O)N[C@@H](CS[C@H]4C)C(=O)N[C@@H](Cc4c[nH]cn4)C(=O)N[C@H](C(=O)N[C@@H](CO)C(=O)NCC(=O)N4CCC[C@H]4C(=O)N[C@@H](CCCNC(=N)N)C(=O)N4CCC[C@H]4C(=O)N4CCC[C@H]4C(=O)N[C@@H](Cc4c[nH]cn4)C(=O)N4CCC[C@H]4C(=O)N[C@@H](CCCNC(=N)N)C(=O)N[C@@H](CC(C)C)C(=O)O)CS[C@H]5C)CS[C@H]3C)CS[C@H]2C)NC(=O)[C@H](CC(C)C)NC1=O [GNT16SG]
Activity against E. coli CECT101 relative to nisin (E. coli CECT101): lower net activity than nisin | Activity against E. coli relative to GNT16 (E. coli CECT101; from MIC values): more than four times lower activity | Activity against L. lactis relative to GNT16-3rings (times higher) (L. lactis MG1363; from MIC values): 2.5 times

GIGKHVGKALKGLKGLLKGLGEC-NH2 [ADP2]
MIC (E. coli ATCC 25922; ref Iliæ et al.): 1^f μM

GNNRPVYIPQPRPPHPRL [Apidaecin 1b]
MIC (E. coli BL21 AI; ref Berthold et al., [2013]): 0.5^b μM | MIC (E. coli BL21 AI; ref Berthold et al., [2013], listed as apidaecin 1b): 0.5 µM

Gu-ONNRPVYIPRPRPPHPRL-NH2 [Api 88, derivative of apidaecin 1b with increased positive charges and an amidated C-terminus]
MIC (E. coli BL21 AI; ref Czihal et al., [2012]): 0.2^b μM

KKLFKKILKYL-NH2 [R-BP100]
MIC (E. coli ATCC 25922; ref Torcato et al.): 0.9 ± 0.4^f μM

Nisin + GKHVGKALKGLKGLLK
cleaved bond [1]: Val32-Dha33

Ring ABC + NGKPRPYSPRPTSHPRPIRV
cleaved bond [2]: P-I

Ring ABC + NGKPRPYSPRPTSHPRPIRV (bicyclic or more) [GNT8, nisin Ring ABC + drosocin tail]
MIC value, E. coli CECT101 (E. coli CECT101; Luria-Bertani broth, 96-well plate, 100 μl, 37°C, 18 h, OD600 every 30 min, peptide 0.25-32 μM, lowest concentration with no observed growth, repeated at least two times): >16 µM | Activity against E. coli CECT101 relative to nisin (E. coli CECT101): lower net activity than nisin

Ring ABC + NMKPPYLPRPRPPRRIYNR
cleaved bond [2]: Y-N and I-Y

Ring ABC + NMKPRPRPPRRIYNR
cleaved bond [2]: N-R and Y-N and I-Y and R-I

VDKPPYLPRPRPPRRIYNR-NH2 [Oncocin]
MIC (E. coli BL21 AI; ref Knappe et al., [2010]): 1.7^b μM
